In assay [1] the target is T1, CHOK1 cells engineered to overexpress human CCR2 (Homo sapiens, UniProt P41597).
T1 construct: expressed in transfected cells; host or cells: CHOK1
Nature of the assay: Antibody Dependent Cellular Cytotoxicity (ADCC) Reporter Assay. The class given is cell-based. The following applies: with anti-cotinine antibody (human IgG1 Fc, S239D/I332E); Jurkat FcγRIIIa NFAT-luciferase reporter cells; average if several runs; read-out: ADCC Reporter Assay pEC50 (converted). Here is the method:
An antibody dependent cellular cytoxocity reporter assay was conducted using the following four assay components: (i) ARM compound of Formula (I) targeting CCR2 (concentrations ranging from 1 pM to 10 μM) (ii) anti-cotinine antibody having a heavy chain sequence of SEQ ID NO: 11 and a light chain sequence of SEQ ID NO: 12 (rabbit variable region with human IgG1 Fc domain containing a DE mutation (S239D/I332E)) (concentrations ranging from 0.01 μg/mL to 200 μg/mL); (iii) target cells: CHOK1 cells engineered to overexpress either human CCR2 (typically 1000-20,000 cells per well) and (iv) reporter cells: Jurkat cells engineered to express FcγRIIIa with the reporter gene luciferase under the control of the NFAT promoter (typically 3000-75,000 cells per well). Reagents were combined in a final volume of 20 μL in a 384-well tissue culture treated plate. All four assay components were incubated together for about 12-18 hours. Thereafter, BioGlo Detection reagent (Promega) was added to the wells to lyse the cells and provide a substrate for the luciferase reporter protein. Luminescence signal was measured on a microplate reader and signal:background was calculated by dividing the signal of a test well by the signal obtained when no heterobivalent compound of Formula (I) was added. EC50 calculations were done using Graphpad Prism Software, specifically a nonlinear regression curve fit (Y=Bottom+(Top−Bottom)/(1+10 ^((Log EC50−X)*HillSlope))).
ARMs compounds of Formula (I) of the invention were tested for ADCC activity in the above assay in or more experimental runs and the results are shown in Table 3 below. Potency of the compounds of Formula (I) of the invention is reported as a pEC50 value. The pEC50 value is the negative log of the EC50 value, wherein the EC50 value is the half maximal effective concentration measured in molar (M). For compounds tested in more than one experimental run, the pEC50 value is reported as an average.

Assay [2] concerns the target human alpha1 nicotinic acetylcholine (nACh) receptor (Homo sapiens, UniProt P02708+Q07001). Nature of the assay: Nicotinic Acetylcholine Receptor Antagonism Assay (IONFlux automated patch clamp). Type of assay: cell-based. The following applies: for pIC50: antagonism of nAChR stimulated with acetylcholine, average if several runs; for Emax at 100 µM: maximum percentage antagonism at Maximum Concentration of Compound Tested 100 μM. Here is the method: Cells expressing human alpha1 nicotinic acetylcholine (nACh) receptor (nAChR) were washed and dissociated using Trypsin containing buffer. Cells were then washed and seeded at a density of 3-5 million cells/mL and allowed to grow for 3 days. Then, 60-80 μL of cells were added to plates and incubated with dose response of an ARM compound of Formula (I) with a top concentration of either 10 μM or 100 μM. The receptor was then stimulated via addition of acetylcholine (ACh) and activation of the receptor was monitored via the IONFlux automated patch clamp system. IonFlux Data Analyzer software was utilized to perform leak subtraction and measure (min) peak current amplitude.
Data processing: (1) Current values recorded for vehicle only applications in individual traps/patterns were subtracted from corresponding current amplitude values for control, test article and control+test article. (2) Control response was calculated as % of the average response of the 3rd out of total 3 ACh (10 mM) applications alone. In rare situations, if the 3rd ACh response was obscured due to technical artifacts, the 2nd and/or 1st ACh (10 mM) application was considered as control. The peak current amplitude generated in the presence of each test article concentration was then used to calculate the % inhibition as compared to control response (10 mM ACh alone). These estimates were further corrected for vehicle response and run down corrected by normalizing with time matched control responses (10 mM ACh alone). The corrected percentages were then fit with a non-linear function in GraphPad Prism 6 (or later versions) to determine the IC50.
Exclusion criteria: (i) any n's with poor recording quality, (ii) control current amplitude <500 pA or (iii) significant outliers, as determined by the Grubbs' test.
ARMs compounds of Formula (I) of the invention were tested for antagonism of the nAChR in the above assay in […] experimental runs and the results are shown in Table 6 below. Antagonistic activity of the compounds of Formula (I) of the invention is reported as an IC50 value (half maximal inhibitory concentration) and the maximum percentage antagonism observed at the highest concentration of compound of Formula (I) tested, as indicated in Table 6. For compounds tested in more than one experimental run, the IC50 value is reported as an average.
A general note: In patch-clamp work, channel activity is measured electrically.

pIC50: −log10 of the molar value. Where a name gives a salt, the structure may show the parent alone.

human alpha1 nicotinic acetylcholine (nACh) receptor, sequence (P02708 21-457): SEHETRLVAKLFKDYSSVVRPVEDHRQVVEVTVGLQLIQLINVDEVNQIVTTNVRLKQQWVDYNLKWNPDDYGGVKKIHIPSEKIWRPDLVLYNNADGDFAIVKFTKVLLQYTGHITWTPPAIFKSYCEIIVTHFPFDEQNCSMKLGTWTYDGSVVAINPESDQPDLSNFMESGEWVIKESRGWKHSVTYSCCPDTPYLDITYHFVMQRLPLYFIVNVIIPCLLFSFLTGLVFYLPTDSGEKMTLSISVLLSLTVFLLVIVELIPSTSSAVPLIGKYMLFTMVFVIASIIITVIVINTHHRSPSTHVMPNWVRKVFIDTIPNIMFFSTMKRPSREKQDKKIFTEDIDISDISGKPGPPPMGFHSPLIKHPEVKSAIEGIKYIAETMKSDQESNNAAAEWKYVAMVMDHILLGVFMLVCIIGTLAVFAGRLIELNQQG
human alpha1 nicotinic acetylcholine (nACh) receptor, sequence (P11230 24-501 partner): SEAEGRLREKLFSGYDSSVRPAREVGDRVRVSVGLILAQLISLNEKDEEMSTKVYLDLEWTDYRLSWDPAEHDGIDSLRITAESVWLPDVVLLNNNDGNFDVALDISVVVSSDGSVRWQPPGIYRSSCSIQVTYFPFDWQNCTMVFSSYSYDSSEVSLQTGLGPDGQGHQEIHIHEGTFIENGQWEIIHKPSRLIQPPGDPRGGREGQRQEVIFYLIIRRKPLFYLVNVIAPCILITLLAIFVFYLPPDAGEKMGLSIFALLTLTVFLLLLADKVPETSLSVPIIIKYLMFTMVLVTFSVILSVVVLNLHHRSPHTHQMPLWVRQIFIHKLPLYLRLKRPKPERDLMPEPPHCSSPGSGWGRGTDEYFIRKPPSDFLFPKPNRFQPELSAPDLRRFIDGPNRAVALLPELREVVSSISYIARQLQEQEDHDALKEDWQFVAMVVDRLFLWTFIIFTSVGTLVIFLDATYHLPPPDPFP
human alpha1 nicotinic acetylcholine (nACh) receptor, sequence (Q07001 22-517): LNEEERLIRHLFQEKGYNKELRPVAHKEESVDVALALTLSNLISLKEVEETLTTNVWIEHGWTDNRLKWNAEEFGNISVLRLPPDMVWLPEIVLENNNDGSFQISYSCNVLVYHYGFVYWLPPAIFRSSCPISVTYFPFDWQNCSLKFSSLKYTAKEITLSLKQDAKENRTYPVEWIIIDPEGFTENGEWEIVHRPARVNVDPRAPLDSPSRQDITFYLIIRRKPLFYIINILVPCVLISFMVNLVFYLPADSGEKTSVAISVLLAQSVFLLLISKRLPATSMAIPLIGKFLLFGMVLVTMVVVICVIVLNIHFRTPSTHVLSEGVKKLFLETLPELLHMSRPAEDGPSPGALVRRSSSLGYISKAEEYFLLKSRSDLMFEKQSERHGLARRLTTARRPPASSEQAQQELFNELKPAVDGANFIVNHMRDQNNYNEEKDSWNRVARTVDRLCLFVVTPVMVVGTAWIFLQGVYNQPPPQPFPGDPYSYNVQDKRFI

Regarding `CO[C@@H]1COCC[C@@H]1N[C@@H]1CC[C@@](C(=O)N2Cc3cc(C(F)(F)F)cnc3[C@@H](NC(=O)CCOCCOCCOCCOCCOCCOCCOCCOCCOCCOCCOCCOCCNC(=O)[C@H]3CC(=O)N(C)[C@@H]3c3cccnc3)C2)(C(C)C)C1` (stereo in doubt) [Example 24, (2S,3S)-N-(39-(((S)-6-((1S,3R)-1-Isopropyl-3-(((3S,4S)-3-methoxytetrahydro-2H-pyran-4-yl)amino)cyclopentane-1-carbonyl)-3-(trifluoromethyl)-5,6,7,8-tetrahydro-1,6-naphthyridin-8-yl)amino)-39-oxo-3,6,9,12,15,18,21,24,27,30,33,36-dodecaoxanonatriacontyl)-1-methyl-5-oxo-2-(pyridin-3-yl)pyrrolidine-3-carboxamide, 3Formic acid salt], the EC50 in assay [1] was 1 nM.

What is called pIC50 is the IC50 on a negative log10 scale, so that one unit is a factor of ten. On to `CO[C@@H]1COCC[C@@H]1N[C@@H]1CC[C@](CCCNC(=O)[C@H]2CC[C@@H](NC(=O)CCCO[C@H]3CC[C@H](OCCNC(=O)[C@H]4CC(=O)N(C)[C@@H]4c4cccnc4)CC3)CC2)(C(=O)N2CCc3ncc(C(F)(F)F)cc3C2)C1` [Example 6, (2S,3S)-N-(2-(((1R,4S)-4-(4-(((1R,4S)-4-((3-((1S,3R)-3-(((3S,4S)-3-Methoxytetrahydro-2H-pyran-4-yl)amino)-1-(3-(trifluoromethyl)-5,6,7,8-tetrahydro-1,6-naphthyridine-6-carbonyl)cyclopentyl)propyl)carbamoyl)cyclohexyl)amino)-4-oxobutoxy)cyclohexyl)oxy)ethyl)-1-methyl-5-oxo-2-(pyridin-3-yl)pyrrolidine-3-carboxamide, Formic acid salt], for which the EC50 in assay [1] was 0.794 nM. Further, in assay [2], the negative logarithm of the IC50 (pIC50) was less than 4.00. The Emax at 100 µM in assay [2] (read-out: Maximum Response (%)) was 31%.

As to `CO[C@@H]1COCC[C@@H]1N[C@@H]1CC[C@](CCCCNC(=O)[C@H]2CC[C@H](NC(=O)CCCO[C@H]3CC[C@@H](OCCNC(=O)[C@H]4CC(=O)N(C)[C@@H]4c4cccnc4)CC3)CC2)(C(=O)N2CCc3ncc(C(F)(F)F)cc3C2)C1` [Example 10, (2S,3S)-N-(2-(((1S,4R)-4-(4-(((1S,4R)-4-((4-((1S,3R)-3-(((3S,4S)-3-Methoxytetrahydro-2H-pyran-4-yl)amino)-1-(3-(trifluoromethyl)-5,6,7,8-tetrahydro-1,6-naphthyridine-6-carbonyl)cyclopentyl)butyl)carbamoyl)cyclohexyl)amino)-4-oxobutoxy)cyclohexyl)oxy)ethyl)-1-methyl-5-oxo-2-(pyridin-3-yl)pyrrolidine-3-carboxamide], the EC50 in assay [1] was 1.26 nM. The same molecule had a pIC50 in assay [2] of less than 4.00. The Emax at 100 µM in assay [2] (read-out: Maximum Response (%)) was found to be 26%.

`CO[C@@H]1COCC[C@@H]1N(CCCNC(=O)[C@H]1CC[C@H](NC(=O)CCCO[C@H]2CC[C@H](OCCNC(=O)[C@H]3CC(=O)N(C)[C@@H]3c3cccnc3)CC2)CC1)[C@@H]1CC[C@@](C(=O)N2CCc3ncc(C(F)(F)F)cc3C2)(C(C)C)C1` [Example 13, (2S,3S)-N-(2-(((1R,4S)-4-(4-(((1S,4R)-4-((3-(((1R,3S)-3-isopropyl-3-(3-(trifluoromethyl)-5,6,7,8-tetrahydro-1,6-naphthyridine-6-carbonyl)cyclopentyl)((3S,4S)-3-methoxytetrahydro-2H-pyran-4-yl)amino)propyl)carbamoyl)cyclohexyl)amino)-4-oxobutoxy)cyclohexyl)oxy)ethyl)-1-methyl-5-oxo-2-(pyridin-3-yl)pyrrolidine-3-carboxamide]: in assay [1], the EC50 is 0.794 nM. In assay [2], this molecule had a pIC50 of less than 4.00. Further, in assay [2] (read-out: Maximum Response (%)), the Emax at 100 µM was determined as 37%.

For the molecule `CO[C@@H]1COCC[C@@H]1N[C@@H]1CC[C@](CCCNC(=O)[C@H]2CC[C@@H](NC(=O)CCCC(=O)NCCCC(=O)NCCCNC(=O)[C@H]3CC(=O)N(C)[C@@H]3c3cccnc3)CC2)(C(=O)N2CCc3ncc(C(F)(F)F)cc3C2)C1` [Example 16, N-((1R,4s)-4-((3-((1S,3R)-3-(((3S,4S)-3-Methoxytetrahydro-2H-pyran-4-yl)amino)-1-(3-(trifluoromethyl)-5,6,7,8-tetrahydro-1,6-naphthyridine-6-carbonyl)cyclopentyl)propyl)carbamoyl)cyclohexyl)-N-(4-((3-((2S,3S)-1-methyl-5-oxo-2-(pyridin-3-yl)pyrolidine-3-carboxamido)propyl)amino)-4-oxobutyl)glutaramide], the EC50 in assay [1] is 0.631 nM. Also, in assay [2], the pIC50 was 4.15. The Emax at 100 µM in assay [2] (read-out: Maximum Response (%)) stood at 64%.

In the case of `CO[C@@H]1COCC[C@@H]1N[C@@H]1CC[C@](CCCCNC(=O)[C@H]2CC[C@@H](NC(=O)CCOCCOCCOCCNC(=O)[C@H]3CC(=O)N(C)[C@@H]3c3cccnc3)CC2)(C(=O)N2CCc3ncc(C(F)(F)F)cc3C2)C1` [Example 18, (2S,3S)-N-(2-(2-(2-(3-(((1R,4s)-4-((4-((1S,3R)-3-(((3S,4S)-3-Methoxytetrahydro-2H-pyran-4-yl)amino)-1-(3-(trifluoromethyl)-5,6,7,8-tetrahydro-1,6-naphthyridine-6-carbonyl)cyclopentyl)butyl)carbamoyl)cyclohexyl)amino)-3-oxopropoxy)ethoxy)ethoxy)ethyl)-1-methyl-5-oxo-2-(pyridin-3-yl)pyrrolidine-3-carboxamide, Formic acid salt], the EC50 in assay [1] is 5.01 nM.

As to `CO[C@@H]1COCC[C@@H]1N[C@@H]1CC[C@](CCCCNC(=O)CCOCCOCCO[C@H]2CC[C@H](OCCNC(=O)[C@H]3CC(=O)N(C)[C@@H]3c3cccnc3)CC2)(C(=O)N2CCc3ncc(C(F)(F)F)cc3C2)C1` [Example 21, (2S,3S)-N-(2-(((1r,4S)-4-(2-(2-(3-((4-((1S,3R)-3-(((3S,4S)-3-Methoxytetrahydro-2H-pyran-4-yl)amino)-1-(3-(trifluoromethyl)-5,6,7,8-tetrahydro-1,6-naphthyridine-6-carbonyl)cyclopentyl)butyl)amino)-3-oxopropoxy)ethoxy)ethoxy)cyclohexyl)oxy)ethyl)-1-methyl-5-oxo-2-(pyridin-3-yl)pyrrolidine-3-carboxamide, Formic acid salt], the EC50 in assay [1] was 6.31 nM. For the same molecule, the pIC50 in assay [2] was less than 5.00. Moreover, in assay [2] (maximum percentage antagonism at Maximum Concentration of Compound Tested 10 μM, read-out: Maximum Response (%)), the Emax at 10 µM is 22%.

Regarding `CO[C@@H]1COCC[C@@H]1N[C@@H]1CC[C@@](C(=O)N2Cc3cc(C(F)(F)F)cnc3[C@H](NC(=O)CCOCCOCCOCCOCCOCCOCCOCCOCCOCCOCCOCCOCCNC(=O)[C@H]3CC(=O)N(C)[C@@H]3c3cccnc3)C2)(C(C)C)C1` [Example 23, (2S,3S)—N-(39-(((R)-6-((1S,3R)-1-Isopropyl-3-(((3S,4S)-3-methoxytetrahydro-2H-pyran-4-yl)amino)cyclopentane-1-carbonyl)-3-(trifluoromethyl)-5,6,7,8-tetrahydro-1,6-naphthyridin-8-yl)amino)-39-oxo-3,6,9,12,15,18,21,24,27,30,33,36-dodecaoxanonatriacontyl)-1-methyl-5-oxo-2-(pyridin-3-yl)pyrrolidine-3-carboxamide, 3Formic acid salt], the EC50 in assay [1] was 0.398 nM.
